Key:
Jurkat cells = experiment: Measuring metabolically active cells using quinone coelenterazine derivatives; assay type: cell-based; details: two-fold serial dilutions of Jurkat cells; stocks 50 μM (40) and 100 μM (50); 30 minutes at 37° C.; Oplophorus luciferase detection reagent
Description: Viable cells maintain a metabolically active state that is inevitably lost when cells are damaged. Upon entering the living cells, the quinone coelenterazine is reduced to a coelenterazine derivative that is a substrate for a coelenterazine-utilizing luciferase, e.g., Oplophorus or Renilla luciferase. Conversion of the quinone coelenterazine is proportional to the number of metabolically active cells, and therefore can be measured quantitatively by monitoring light produced by luciferase reaction.
Two-fold serial dilutions of Jurkat cells were prepared in PBS, and 50 μl per well transferred to wells in 96-well plates. Compounds 40 and 50 were diluted in PBS to make 50 μM and 100 μM stocks, respectively. 10 μl of prepared compound stocks were added to the cells, and the cells were placed into 37° C., 5% CO2 incubator. Following 30 minutes incubation, the cells were removed from incubator, cooled at room temperature for 10 minutes, and 50 μl of Oplophorus luciferase detection reagent added directly to the wells. The samples were mixed, incubated at room temperature for 20 minutes, and luminescence measured.

caspase-3 [1] = molecular target: T1, caspase-3 (Homo sapiens, UniProt P42574); experiment: Caspase-3 detection with z-DEVD-coelenterazine-h and Renilla luciferase; assay type: biochemical; details: 25 μM substrate, 25 U/ml caspase-3, 3.25 ug/ml Renilla luciferase, measured over 110 minutes
T1 sequence (P42574 29-175 limits assumed): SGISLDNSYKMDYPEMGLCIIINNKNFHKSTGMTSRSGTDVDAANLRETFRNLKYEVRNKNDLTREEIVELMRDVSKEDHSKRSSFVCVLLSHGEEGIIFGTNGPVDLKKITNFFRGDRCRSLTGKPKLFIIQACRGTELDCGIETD
T1 sequence (P42574 176-277 limits assumed): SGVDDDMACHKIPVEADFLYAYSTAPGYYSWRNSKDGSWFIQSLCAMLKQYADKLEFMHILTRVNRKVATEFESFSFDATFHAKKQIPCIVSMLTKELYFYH
Protocol: Compound 21 (50 μM) was combined with Renilla luciferase (6.5 μg/ml, Renilla-GST fusion) in 50 mM HEPES buffer pH 7.2, 2 mM DTT, and 0.5% CHAPS and incubated for 20 minutes to remove any free coelenterazine derivatives that may be substrates for Renilla luciferase. Purified caspase-3 enzyme (50 U/ml) or buffer control was added in a 1:1 volume ratio for final concentrations of 25 μM Z-DEVD-coelenterazine h derivative substrate, 25 U/ml caspase-3 and 3.25 ug/ml luciferase. Luminescence was measured over 110 minutes.

caspase-3 [2] = molecular target: T1, caspase-3; experiment: Caspase 3 assay using Oplophorus luciferase variant 9B8 opt; assay type: biochemical; details: 23.5 μM substrate, OgLuc 9B8 opt lysate, with caspase-3
Protocol: (§1) An Oplophorus luciferase (OgLuc) variant, 9B8 opt, was used in a bioluminescent assay using a pro-coelenterazine substrate comprising the DEVD caspase-3 cleavage sequence. Purified caspase-3 enzyme was mixed with an E. coli lysate sample expressing the variant 9B8 opt, which was purified using the HALOLINK™ Resin (Promega Corp.) according to manufacturer's instructions, and diluted 10-fold in a buffer containing 100 mM MES pH 6.0, 1 mM CDTA, 150 mM KCl, 35 mM thiourea, 2 mM DTT, 0.25% TERGITOL® NP-9 (v/v), 0.025% MAZU®, with or without 23.5 μM z-DEVD-coelenterazine-h in 100 mM HEPES pH 7.5. The caspase-3 enzyme was incubated with the lysate sample for 3 hrs at room temperature, and luminescence detected on a Turner MODULUS™ luminometer at various time points. A sample containing only bacterial lysate and a sample containing only caspase-3 were used as controls. Three replicates were used.

caspase-3 [3] = experiment: as above; assay type: biochemical; details: 23.5 μM substrate, OgLuc 9B8 opt lysate, no caspase-3
Protocol: as §1

| increase in luminescence relative to control samples that did not contain caspase (caspase-3 [1]) | luminescence, + caspase (caspase-3 [2]; 5.0 min) | luminescence, + caspase (caspase-3 [2]; 15.3 min) | luminescence, + caspase (caspase-3 [2]; 29.9 min) | luminescence, + caspase (caspase-3 [2]; 60.9 min) | luminescence, + caspase (caspase-3 [2]; 190.3 min) | luminescence, − caspase (caspase-3 [3]; 5.0 min) | luminescence, − caspase (caspase-3 [3]; 15.3 min) | luminescence, − caspase (caspase-3 [3]; 29.9 min) | luminescence, − caspase (caspase-3 [3]; 60.9 min) | luminescence, − caspase (caspase-3 [3]; 190.3 min) | Compound | relationship between luminescence and cell number (Jurkat cells) |
| --- | --- | --- | --- | --- | --- | --- | --- | --- | --- | --- | --- | --- |
| – | – | – | – | – | – | – | – | – | – | – | CC1=C(C)C(=O)C(C(C)(C)CC(=O)N(C)CCN(C)C(=O)Oc2c(Cc3ccco3)nc3c(Cc4ccccc4)nc(-c4ccccc4)cn23)=C(C)C1=O [Compound 40] | linear correlation between cell number and luminescence |
| – | – | – | – | – | – | – | – | – | – | – | CC1=C(C)C(=O)C(C(C)(C)CC(=O)N(C)CCN(C)C(=O)Oc2c(Cc3ccccc3)nc3c(Cc4ccccc4)nc(-c4ccccc4)cn23)=C(C)C1=O [Compound 50] | linear correlation between cell number and luminescence |
| one hundred-fold increase | 25,411 RLU | 36,906 RLU | 41,854 RLU | 43,370 RLU | 42,448 RLU | 26,023 RLU | 7,707 RLU | 4,013 RLU | 2,305 RLU | 1,155 RLU | z-DEVD-coelenterazine-h [Compound 21] | – |
